From patent publication US9107852B2, “Uses of agonists of delta opioid receptor in cosmetic and dermocosmetic field” (Induchem Holding AG, priority 2012, dated 2015)
Ends that are not written are not given here.

What was measured:
[1] = tested on: opioid receptor delta (DOR); assay: Scoring of DOR1 expression in RHE stimulated with cytokines; type: cell-based, human; conditions: JAK inhibitor I tested at 10 μM
Protocol: In the present study, the effects of a peptide (YPLDLF, SEQ ID No 1) on the expression of opioid receptor delta (DOR) were researched on a reconstructed human epidermis (RHE) model under basal or stimulated conditions. More precisely, the RHE were stimulated by a mix of cytokines (IL-17+OSM+TNF-α) able to induce a strong inflammatory profile and a psoriatic phenotype in keratinocytes.
(§1) Reconstructed human epidermis (RHE) of 11 days old was prepared according to a derived method described by Poumay et al. (2004). These RHE were cultivated at 37° C. and 5% of CO2 in a specific maintenance medium.
The RHE treated under basal conditions were placed in assay medium containing or not (non-stimulated control) the peptide solutions and incubated for 54 hours. For inflammatory conditions, the RHE were placed in assay medium containing or not (stimulated control) the peptide solutions or the reference […] at 10 μM) and pre-incubated for 6 hours. The RHE were then stimulated with a mix of cytokines (IL-17+OSM+TNF-α at 3 ng/ml) and incubated for 48 hours. All experimental conditions were performed in n=3.
At the end of incubation, the supernatants were collected and the RHE were washed in phosphate buffered saline solution (PBS) for immunohistofluorescence analysis. […]

[2] = tested on: reconstructed human epidermis (RHE); assay: Gene expression (RT-qPCR array) in inflammatory reconstructed human epidermis; type: cell-based; conditions: with cytokines and peptide 0.3 PPM; versus non stimulated RHE
Protocol: Transcriptional effects of a peptide (YPLDLF, SEQ ID No 1) on gene expression were researched on a reconstructed human epidermis (RHE) model under inflammatory conditions. The inflammation of the RHE was induced using a mix of cytokines (IL-17+OSM+TNF-α). The effects on gene expression were evaluated using RT-qPCR technology. Extracted mRNA was analyzed on a customized PCR array designed by the study sponsor and containing 64 target genes (including 2 housekeeping genes) selected for their role in keratinocyte differentiation, or their involvement in cell junctions and lipid synthesis, or their relation to opioid receptor delta (DOR).
as §1
The RHE were cultured in assay medium containing or not (controls) the test compounds or the reference […] inhibitor I at 10 μM) and pre-incubated for 24 hours. Epidermises were then stimulated or not (non-stimulated control) with a cytokine mix (IL-17+OSM+TNF-α) at 3 ng/ml and the epidermises were incubated for 24 hours. All experimental conditions were performed in n=2.
At the end of incubation, the supernatants were collected and the RHE were washed in phosphate buffered saline solution (PBS) and immediately dry-frozen at −80° C.
The expression of markers was analyzed using RT-qPCR method on mRNA extracted from RHE for each treatment (before RNA extraction the replicates were pooled).
Analysis of gene expression was performed in n=2 using a customized PCR array dedicated to research and adapted to ‘screening’ format.
Total RNA was extracted from each sample using TriPure Isolation Reagent® according to the supplier's instructions. The amount and quality of RNA were evaluated using a lab-on-a-chip Bioanalyzer (Agilent technologies). The RNA quality controls are presented in appendix. Potential contaminant traces of genomic DNA were removed using the DNAfree system (Ambion). The reverse-transcription of mRNA was conducted in presence of oligo(dT) and Superscript II reverse-transcriptase. Quantification of cDNA was performed using Nanovue (GE Healthcare) and adjustment of cDNA at 10 ng/μl.
The PCRs (Polymerase Chain Reactions) were performed using the <<LightCycler®>> system (Roche Molecular System Inc.) according to supplier's instructions. This system allows rapid and powerful PCRs, after determining analysis conditions of the test primers.
The reaction mix (10 μl final) was added as follows: • 2.5 μl of cDNA at 10 ng/μl, • primers forward and reverse, • reagent mix containing taq DNA polymerase, SYBR Green I and MgCl2. Data Management of Quantitative PCR
The incorporation of fluorescence in amplified DNA was continuously measured during the PCR cycles. […] The value selected for RE calculations is the “output point” (Ct) of the fluorescence curve. For a considered marker, the highest is the cycle number; the lowest is the mRNA quantity. The RE value was expressed in arbitrary units (AU) according to the formula: (½^number of cycles)×10^6.

YPLDLF [YPLDLF]
inhibitory effect of the cytokine mix on OPRD1 expression [1]: reversed | Relative expression of ACSS2 [2]: 113 % Control (Mean HK) | Relative expression of ADRB2 [2]: 259 % Control (Mean HK) | Relative expression of BIRC5 [2]: 88 % Control (Mean HK) | Relative expression of CALML5 (Calmodulin-like 5) [2]: 72 % Control (Mean HK) | Relative expression of CASP3 [2]: 104 % Control (Mean HK) | Relative expression of CDH1 (E-cadherin) [2]: 126 % Control (Mean HK) | Relative expression of CDSN (Corneodesmosin) [2]: 161 % Control (Mean HK) | Relative expression of CLDN1 (Claudin 1) [2]: 128 % Control (Mean HK) | Relative expression of CLDN2 (Claudin 2) [2]: 121 % Control (Mean HK) | Relative expression of CREB1 [2]: 109 % Control (Mean HK) | Relative expression of CRNN (Cornulin) [2]: 71 % Control (Mean HK) | Relative expression of CTNNA1 [2]: 117 % Control (Mean HK) | Relative expression of CTNNB1 [2]: 134 % Control (Mean HK) | Relative expression of DSG1 (Desmoglein 1) [2]: 98 % Control (Mean HK) | Relative expression of DSP (Desmoplakin) [2]: 107 % Control (Mean HK) | Relative expression of DST (Dystonin) [2]: 93 % Control (Mean HK) | Relative expression of EGFR [2]: 141 % Control (Mean HK) | Relative expression of EPPK1 (Epiplakin 1) [2]: 82 % Control (Mean HK) | Relative expression of EVPL (Envoplakin) [2]: 132 % Control (Mean HK) | Relative expression of F11R [2]: 115 % Control (Mean HK) | Relative expression of FLG (Filaggrin) [2]: 117 % Control (Mean HK) | Relative expression of GAPDH [2]: 116 % Control (Mean HK) | Relative expression of GBA [2]: 110 % Control (Mean HK) | Relative expression of GJA1 [2]: 111 % Control (Mean HK) | Relative expression of GJA5 [2]: 90 % Control (Mean HK) | Relative expression of GJB2 [2]: 131 % Control (Mean HK) | Relative expression of GJB3 [2]: 111 % Control (Mean HK) | Relative expression of GJB4 [2]: 77 % Control (Mean HK) | Relative expression of GJB5 [2]: 122 % Control (Mean HK) | Relative expression of GJB6 [2]: 203 % Control (Mean HK) | Relative expression of GJC1 [2]: 126 % Control (Mean HK) | Relative expression of GJD3 [2]: 487 % Control (Mean HK) | Relative expression of GNAS [2]: 130 % Control (Mean HK) | Relative expression of ITGA2 [2]: 108 % Control (Mean HK) | Relative expression of ITGAV [2]: 103 % Control (Mean HK) | Relative expression of IVL (Involucrin) [2]: 119 % Control (Mean HK) | Relative expression of KRT1 (Keratin 1) [2]: 140 % Control (Mean HK) | Relative expression of KRT10 (Keratin 10) [2]: 145 % Control (Mean HK) | Relative expression of KRT19 (Keratin 19) [2]: 134 % Control (Mean HK) | Relative expression of LOR (Loricrin) [2]: 121 % Control (Mean HK) | Relative expression of MAPK1 [2]: 108 % Control (Mean HK) | Relative expression of MAPK14 [2]: 109 % Control (Mean HK) | Relative expression of OCLN (Occludin) [2]: 131 % Control (Mean HK) | Relative expression of ODC1 [2]: 110 % Control (Mean HK) | Relative expression of OPRD1 (Opioid receptor, delta 1) [2]: 101 % Control (Mean HK) | Relative expression of PADI1 [2]: 105 % Control (Mean HK) | Relative expression of PANX1 (Pannexin 1) [2]: 133 % Control (Mean HK) | Relative expression of PTGS2 [2]: 119 % Control (Mean HK) | Relative expression of PVRL1 [2]: 131 % Control (Mean HK) | Relative expression of RPS28 (Ribosomal protein S28) [2]: 91 % Control (Mean HK) | Relative expression of SFN (Stratifin) [2]: 143 % Control (Mean HK) | Relative expression of SLC1A3 [2]: 100 % Control (Mean HK) | Relative expression of SMPD1 [2]: 87 % Control (Mean HK) | Relative expression of SPRR1A [2]: 142 % Control (Mean HK) | Relative expression of SPRR1B [2]: 127 % Control (Mean HK) | Relative expression of SPRR2A [2]: 111 % Control (Mean HK) | Relative expression of SPTLC1 [2]: 120 % Control (Mean HK) | Relative expression of STAT3 [2]: 120 % Control (Mean HK) | Relative expression of SULT2B1 [2]: 173 % Control (Mean HK) | Relative expression of TGM1 (Transglutaminase 1) [2]: 108 % Control (Mean HK) | Relative expression of TJAP1 [2]: 81 % Control (Mean HK) | Relative expression of TJP1 [2]: 129 % Control (Mean HK) | Relative expression of UGCG [2]: 117 % Control (Mean HK)
